Earlier results, collected in US6068858A, “Methods of making nanocrystalline formulations of human immunodeficiency virus (HIV) protease inhibitors using cellulosic surface stabilizers” (Elan Pharma International Limited, priority 1999, dated 2000).
Where two headings read alike, the source gives them in different places. Values belong to the molecule of their own block, whether it stands above or below them.

How the values were obtained:
HIV RT = conditions: background statement; for side effects: interfere with cellular enzymes

- oral bioavailability (in vivo, po): low oral bioavailability
SMILES: CC(C)c1nc(CN(C)C(=O)N[C@H](C(=O)N[C@@H](Cc2ccccc2)C[C@H](O)[C@H](Cc2ccccc2)NC(=O)OCc2cncs2)C(C)C)cs1 [ABT-538]

- oral bioavailability (in vivo, po): low oral bioavailability
SMILES: Cc1c(O)cccc1C(=O)N[C@@H](CSc1ccccc1)[C@H](O)CN1C[C@H]2CCCC[C@H]2C[C@H]1C(=O)NC(C)(C)C [AG1343]

- oral bioavailability (in vivo, po): low oral bioavailability
SMILES: Nc1cccc(CN2C(=O)N(Cc3cccc(N)c3)[C@H](Cc3ccccc3)[C@H](O)[C@@H](O)[C@H]2Cc2ccccc2)c1 [DMP-450]

- oral bioavailability (in vivo, po): low oral bioavailability
SMILES: CC(C)(C)NC(=O)[C@@H]1CN(Cc2cccnc2)CCN1C[C@@H](O)C[C@@H](Cc1ccccc1)C(=O)N[C@H]1c2ccccc2C[C@H]1O [MK-639]

- oral bioavailability (in vivo, po): low oral bioavailability
SMILES: CC(C)CN(C[C@@H](O)[C@H](Cc1ccccc1)NC(=O)O[C@H]1CCOC1)S(=O)(=O)c1ccc(N)cc1 [VX-478]

- oral bioavailability (in vivo, po): low oral bioavailability
SMILES: CC(C)(C)NC(=O)[C@@H]1C[C@@H]2CCCC[C@@H]2CN1C[C@@H](O)[C@H](Cc1ccccc1)NC(=O)[C@H](CC(N)=O)NC(=O)c1ccc2ccccc2n1 [saquinavir]

The remaining lines, values behind:

SMILES: O[C@H](CS)[C@H](O)CS (racemic) [ddT, dithiothreitol]
- effectiveness in treating HIV infection (HIV RT): only modestly effective
- side effects (HIV RT): severe side effects

SMILES: Cc1cn([C@H]2C[C@H](N=[N+]=[N-])[C@@H](CO)O2)c(=O)[nH]c1=O [AZT, azidothymidine]
- side effects (HIV RT): severe side effects

SMILES: CSC[C@H](NC(=O)COc1cccc2cnccc12)C(=O)N[C@@H](Cc1ccccc1)[C@H](O)C(=O)N1CSC[C@H]1C(=O)NC(C)(C)C [KNI-272]
- oral bioavailability (as reported in literature): low oral bioavailability

SMILES: N#Cc1ccc(S(=O)(=O)Nc2cccc(C(c3c(O)c4c(oc3=O)CCCCCC4)C3CC3)c2)cc1 (stereo not shown) [U-103,017]
- oral bioavailability (as reported in literature): low oral bioavailability

SMILES: O=c1[nH]cnc2c1ncn2[C@H]1CC[C@@H](CO)O1 [ddI, didanosine]
- effectiveness in treating HIV infection (HIV RT): only modestly effective
- side effects (HIV RT): severe side effects
